# Test results published in ChEMBL document CHEMBL1201862, “PubChem BioAssay data set” (2004).
# Active and inactive are the calls of the source.
# What was measured:
# Cytochrome P450 2D6 = Cytochrome P450 2D6 (Homo sapiens, UniProt P10635);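 note: CYP2D6 member of a cytochrome P450 panel assay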
# [1] = cytotoxicity in HEK-293T NF-kB-Luc cells, dose response, cytotoxicity control for B/T-cell NF-kB inhibitor project, cell-based, uHTS hits (AID 489019); format: functional;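 note: IC50 reflects cytotoxicity as loss of cell viability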
# [2] = target: COUP transcription factor 2 (Homo sapiens, UniProt P24468); test: Luminescence-based cell-based high throughput dose response assay to identify inhibitors of COUP-TFII (NR2F2).; format: functional;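 note: HEK293 cells transiently cotransfected with COUP-TFII expression vector and reporter; luciferase reporter luminescence driven by COUP-TFII from the pX2-168 reporter plasmid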
# COUP transcription factor 2, sequence (P24468 whole entry): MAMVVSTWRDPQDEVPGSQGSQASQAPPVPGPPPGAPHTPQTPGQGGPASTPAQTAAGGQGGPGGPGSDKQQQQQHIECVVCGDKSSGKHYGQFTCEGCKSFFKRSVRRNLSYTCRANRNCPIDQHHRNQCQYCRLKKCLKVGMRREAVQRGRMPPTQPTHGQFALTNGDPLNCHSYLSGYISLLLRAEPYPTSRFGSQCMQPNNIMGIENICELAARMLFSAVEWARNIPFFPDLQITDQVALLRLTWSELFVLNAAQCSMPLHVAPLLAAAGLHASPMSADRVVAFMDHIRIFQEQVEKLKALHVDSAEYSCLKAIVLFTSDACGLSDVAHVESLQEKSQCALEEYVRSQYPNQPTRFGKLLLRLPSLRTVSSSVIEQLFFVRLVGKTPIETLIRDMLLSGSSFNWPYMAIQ
# INS1 = test: beta cell apoptosis inhibitors, cytokine rescue, dose response, luminescence, retest (AID 449756); format: functional, cell-based; settings: Rattus norvegicus;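 note: cell death triggered by IL-1 beta plus TNF-alpha plus IFN-gamma mixture; protective hits raise ATP signal compared with cytokine alone wells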
# Jurkat = test: antigen receptor-induced NF-kB inhibitors, dose response, Jurkat, luciferase reporter, luminescence, B- and T-cell (AID 489004); format: functional, cell-based; settings: Homo sapiens;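 note: NF-kB luciferase reporter Jurkat cells stimulated with PMA plus ionomycin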
# [3] = cytotoxicity in MIN6 insulinoma cells, dose response, cytotoxicity control, cell-based, mouse insulinoma (AID 2122); format: functional;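 note: confirmatory high-throughput counterscreen run to flag cytotoxic compounds; mouse MIN-6 beta cells carrying an insulin promoter eGFP reporter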
# HEK293 [4] = test: cells; settings: Homo sapiens
# HEK293 [5] = test: cells; settings: Homo sapiens; remark: listed apart in the source
# [6] = insulin promoter down-regulators in MIN6 cells, imaging, high-content screening, mouse beta cells (AID 1628); format: functional
# [7] = target: T1, Rac GTPase-activating protein 1 (Homo sapiens, UniProt Q9H0H5); test: MgcRacGAP GTPase-activating activity inhibitors, confirmation, biochemical, ADP Hunter fluorescence, primary and confirmatory (AID 624330); format: functional
# T1 sequence (Q9H0H5 whole entry): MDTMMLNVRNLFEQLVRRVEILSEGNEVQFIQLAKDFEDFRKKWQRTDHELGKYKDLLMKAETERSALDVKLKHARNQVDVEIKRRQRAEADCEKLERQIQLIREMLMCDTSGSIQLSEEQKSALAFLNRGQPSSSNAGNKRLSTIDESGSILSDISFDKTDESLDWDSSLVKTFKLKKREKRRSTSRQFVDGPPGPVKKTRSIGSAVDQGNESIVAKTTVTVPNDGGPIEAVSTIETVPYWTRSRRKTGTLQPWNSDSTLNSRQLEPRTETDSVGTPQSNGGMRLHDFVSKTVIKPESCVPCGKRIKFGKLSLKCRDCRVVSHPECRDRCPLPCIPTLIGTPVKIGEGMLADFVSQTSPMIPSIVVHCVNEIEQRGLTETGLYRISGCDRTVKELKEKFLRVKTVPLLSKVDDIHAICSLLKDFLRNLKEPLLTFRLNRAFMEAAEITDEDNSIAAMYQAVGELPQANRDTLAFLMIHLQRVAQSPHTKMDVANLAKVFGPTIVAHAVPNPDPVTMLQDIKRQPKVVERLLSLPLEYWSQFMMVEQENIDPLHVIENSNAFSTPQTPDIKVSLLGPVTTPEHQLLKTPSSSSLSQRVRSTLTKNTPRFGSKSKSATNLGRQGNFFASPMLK
# [8] = Luminescence Cell-Based Dose Retest to Confirm Inhibitors of Cancer Stem Cells. [Related pubchem assays (depositor defined):AID2717, AID2721]; format: functional; settings: Homo sapiens
# [9] = cytotoxicity in HMLE control line with eGFP shRNA, dose response, counter-screen for HMLE_sh_ECad selective toxicity project, cell-based, HMLE_sh_eGFP, luminescence (AID 463074); format: functional, Homo sapiens;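 note: HMLE human mammary epithelial cells expressing control shRNA against eGFP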
# Cytochrome P450 2D6, sequence (P10635 whole entry): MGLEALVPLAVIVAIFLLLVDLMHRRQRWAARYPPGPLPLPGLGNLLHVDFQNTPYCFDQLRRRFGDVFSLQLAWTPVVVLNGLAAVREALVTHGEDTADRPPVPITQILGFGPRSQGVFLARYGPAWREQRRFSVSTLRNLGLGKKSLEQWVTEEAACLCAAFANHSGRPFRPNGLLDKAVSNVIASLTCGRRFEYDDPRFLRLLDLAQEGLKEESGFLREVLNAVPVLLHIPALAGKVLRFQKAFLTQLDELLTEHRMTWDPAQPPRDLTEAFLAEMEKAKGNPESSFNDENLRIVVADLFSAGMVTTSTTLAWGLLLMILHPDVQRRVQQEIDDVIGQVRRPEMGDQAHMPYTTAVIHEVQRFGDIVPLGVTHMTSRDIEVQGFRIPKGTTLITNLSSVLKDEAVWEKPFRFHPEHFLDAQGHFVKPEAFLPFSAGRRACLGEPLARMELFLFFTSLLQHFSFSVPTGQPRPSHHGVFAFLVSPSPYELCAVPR
smiles,measurement,setting,value
O=C(c1ccccc1)c1nn(-c2ccccc2)c(=O)cc1C(F)(F)F,AC50,Cytochrome P450 2D6,inconclusive
CCCCCCn1ccc(=N)cc1,IC50,[1],13 µM (active)
same,IC50,[2],15.8 µM (inactive)
same,AC50,INS1,3.13 µM (active)
same,IC50,Jurkat,> 80 µM (inactive)
Nc1ccccc1Nc1cccc(C(F)(F)F)c1,IC50,[3],5.09 µM (active)
same,EC50,HEK293 [4],> 59.6 µM (inactive)
same,EC50,HEK293 [5],> 59.6 µM (inactive)
same,IC50,[6],4.45 µM (active)
same,IC50,[7],89 µM (active)
COc1cc(NC(=O)c2cc(C)on2)cc(C(=O)Nc2cccc(C(F)(F)F)c2)c1,AC50,[8],11.6 µM (active)
same,AC50,[9],24.2 µM (active)
